We go through 18 compounds from patent publication US11345666B2, “Phenyl and pyridinyl substituted imidazoles as modulators of RORγT” (Janssen Pharmaceutica NV, priority 2018, dated 2022).

Marks after values point to notes of the source that are not given here.

In one assay the target is full-length human RORγt (Homo sapiens (Human), UniProt P51449). Briefly: RORγt (full-length human) reporter assay, conditions A or B. Type of assay: cell-based. Conditions: for RORγt (FL) Reporter Assay A or B, % inhibition / inhibition at 3 µM: 3 μM compound concentration (*); for IC50: HEK293T cells, read-out: RORγt (FL) Reporter Assay A or B, IC50; for inhibition at 6 µM: read-out: RORγt (FL) Reporter Assay A or B, % inhibition @ 6 μM, 6 μM compound concentration; for inhibition at 2 µM: 2 μM compound concentration (**); for inhibition at 0.67 µM: 0.67 μM compound concentration (****). In outline: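 HEK293T cells transiently co-transfected (PEI) with GAL4-DBD–RORγt, GAL4-firefly luciferase and CMV-Renilla reporters; condition A 35,000 cells/well, 170.5 ng DNA/well; condition B 8750 cells/well, 42.6 ng DNA/well.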
In general terms: A reporter such as luciferase makes a cellular process visible.

For assay [1], the target named is human RORγt ligand binding domain (RORγt LBD) (Homo sapiens (Human), UniProt P51449). Briefly: RORγt ThermoFluor assay. Summed up:
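Thermal shift of His-tagged human RORγt LBD (0.065 mg/mL) with 60 μM 1,8-ANS in 100 mM Hepes pH 7.0, 10 mM NaCl, 2.5 mM GSH, 0.002% Tween-20, heated at 1° C./min. Compounds in 1:2 series from a 10 mM DMSO stock; KD estimated from ΔTm using protein unfolding thermodynamics.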
For orientation: Differential scanning fluorimetry follows unfolding on heating by fluorescence.

[2] abbreviates: read-out: RORγt (FL) Reporter Assay A or B, % inhibition.

The IC50 is the concentration that gives 50% inhibition. A word on the Kd: it is the constant that tells how readily two partners part at equilibrium. A low value points to tighter binding. By inhibition is commonly meant the change of the read-out against control, counted positive when it falls.

Sequence of full-length human RORγt (P51449 other isoform, or with tags, fused parts or gaps): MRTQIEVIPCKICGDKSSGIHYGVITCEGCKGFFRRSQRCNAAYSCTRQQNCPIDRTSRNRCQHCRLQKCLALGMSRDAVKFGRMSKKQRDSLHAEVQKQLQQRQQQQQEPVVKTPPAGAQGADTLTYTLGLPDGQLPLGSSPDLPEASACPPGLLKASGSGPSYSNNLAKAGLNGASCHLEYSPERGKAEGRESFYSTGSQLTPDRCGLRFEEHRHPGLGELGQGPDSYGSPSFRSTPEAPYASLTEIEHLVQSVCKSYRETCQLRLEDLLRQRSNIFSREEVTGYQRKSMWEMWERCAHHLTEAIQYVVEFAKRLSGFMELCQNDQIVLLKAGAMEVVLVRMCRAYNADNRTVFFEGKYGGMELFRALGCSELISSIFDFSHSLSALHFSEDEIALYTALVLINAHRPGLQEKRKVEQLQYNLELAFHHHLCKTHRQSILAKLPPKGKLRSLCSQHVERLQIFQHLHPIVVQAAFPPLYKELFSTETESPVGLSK
Sequence of human RORγt ligand binding domain (RORγt LBD) (P51449 other isoform, or with tags, fused parts or gaps): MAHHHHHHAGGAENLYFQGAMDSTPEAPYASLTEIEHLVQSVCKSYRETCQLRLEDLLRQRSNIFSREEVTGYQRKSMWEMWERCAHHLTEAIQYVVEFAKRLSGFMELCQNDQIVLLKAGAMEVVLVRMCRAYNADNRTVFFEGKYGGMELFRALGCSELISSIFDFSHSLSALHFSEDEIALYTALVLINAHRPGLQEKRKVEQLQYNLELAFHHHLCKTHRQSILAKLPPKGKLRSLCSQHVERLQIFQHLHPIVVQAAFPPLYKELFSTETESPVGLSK

Regarding `CCc1nc(C(=O)NC[C@H]2CC[C@H](S(=O)(=O)NC)CC2)c(Cl)n1-c1ncc(CC(C)(C)C(F)(F)F)cc1OC(F)F` [Example 68, 5-Chloro-1-(3-(difluoromethoxy)-5-(3,3,3-trifluoro-2,2-dimethylpropyl)pyridin-2-yl)-2-ethyl-N-(((1r,4r)-4-(N-methylsulfamoyl)cyclohexyl)methyl)-1H-imidazole-4-carboxamide], at full-length human RORγt, the “RORγt (FL) Reporter Assay A or B, % inhibition” value is reported as 103* % and the IC50 was found to be 50 nM. Further, binding in assay [1] was put at a Kd of 3.7 nM.

As to `CCc1nc(C(=O)NC[C@H]2CC[C@H](S(N)(=O)=O)CC2)c(Cl)n1-c1ncc(CC(C)(C)C(F)(F)F)cc1OC(F)F` [Example 69, 5-Chloro-1-(3-(difluoromethoxy)-5-(3,3,3-trifluoro-2,2-dimethylpropyl)pyridin-2-yl)-2-ethyl-N-(((1r,4r)-4-sulfamoylcyclohexyl)methyl)-1H-imidazole-4-carboxamide], the inhibition at 3 µM at full-length human RORγt (setting [2]) came out at 102%. Moreover, on full-length human RORγt, the IC50 was determined as 39 nM. In assay [1], this compound showed a Kd of 7.2 nM.

In the case of `CCc1nc(C(=O)NC[C@H]2CC[C@H](S(=O)(=O)N(C)C)CC2)c(Cl)n1-c1ncc(CC(C)(C)C(F)(F)F)cc1OC(F)F` [Example 70, 5-Chloro-1-(3-(difluoromethoxy)-5-(3,3,3-trifluoro-2,2-dimethylpropyl)pyridin-2-yl)-N-(((1r,4r)-4-(N,N-dimethylsulfamoyl)cyclohexyl)methyl)-2-ethyl-1H-imidazole-4-carboxamide], on full-length human RORγt, the “RORγt (FL) Reporter Assay A or B, % inhibition” value is on record as 88* % and the IC50 came to 350 nM. The compound also gave a Kd in assay [1] of 320 nM.

`CCc1nc(C(=O)NC[C@H]2CC[C@H](S(C)(=O)=O)CC2)c(Cl)n1-c1ncc(CC(C)(C)C(F)(F)F)cc1C` [Example 74, 5-Chloro-2-ethyl-1-(3-methyl-5-(3,3,3-trifluoro-2,2-dimethylpropyl)pyridin-2-yl)-N-(((1r,4r)-4-(methylsulfonyl)cyclohexyl)methyl)-1H-imidazole-4-carboxamide]: the inhibition at 3 µM at full-length human RORγt (setting [2]) stood at 116%. The IC50 on full-length human RORγt is 92 nM. The dissociation constant Kd in assay [1] was found to be 34 nM.

Consider `CCc1cc(CC(C)(C)C(F)(F)F)cnc1-n1c(CC)nc(C(=O)NC[C@H]2CC[C@H](S(C)(=O)=O)CC2)c1Cl` [Example 75, 5-Chloro-2-ethyl-1-(3-ethyl-5-(3,3,3-trifluoro-2,2-dimethylpropyl)pyridin-2-yl)-N-(((1r,4r)-4-(methylsulfonyl)cyclohexyl)methyl)-1H-imidazole-4-carboxamide], for which the inhibition at 3 µM on full-length human RORγt (setting [2]) turned out to be 110%. The IC50 at full-length human RORγt was found to be 59 nM. In assay [1], this compound showed a Kd of 8.3 nM.

For the compound `CCc1nc(C(=O)NC[C@]2(O)CC[C@@H](S(C)(=O)=O)CC2)c(C)n1-c1ncc(CC(C(F)(F)F)C(F)(F)F)cc1OC(F)F` [Example 76, 1-(3-(Difluoromethoxy)-5-(3,3,3-trifluoro-2-(trifluoromethyl)propyl)pyridin-2-yl)-2-ethyl-N-(((1s,4s)-1-hydroxy-4-(methylsulfonyl)cyclohexyl)methyl)-5-methyl-1H-imidazole-4-carboxamide], the inhibition at 3 µM on full-length human RORγt (setting [2]) was determined as 76%. The IC50 at full-length human RORγt turned out to be 440 nM. Moreover, the Kd in assay [1] was determined as 110 nM.

Take `CCc1nc(C(=O)NC[C@H]2CC[C@H](S(C)(=O)=O)CC2)c(C)n1-c1ncc(CC(C(F)(F)F)C(F)(F)F)cc1OC(F)F` [Example 77, 1-(3-(Difluoromethoxy)-5-(3,3,3-trifluoro-2-(trifluoromethyl)propyl)pyridin-2-yl)-2-ethyl-5-methyl-N-(((1r,4r)-4-(methylsulfonyl)cyclohexyl)methyl)-1H-imidazole-4-carboxamide]: the inhibition at 3 µM at full-length human RORγt (setting [2]) is 101%. In addition, the IC50 at full-length human RORγt stood at 77 nM. Also, in assay [1], the affinity, expressed as Kd, was 20 nM.

Take `CCc1nc(C(=O)NC[C@]2(O)CC[C@@H](S(C)(=O)=O)CC2)cn1-c1c(F)cc(CC(C)C)cc1F` [Example 81, 1-(2,6-Difluoro-4-isobutylphenyl)-2-ethyl-N-(((1s,4s)-1-hydroxy-4-(methylsulfonyl)cyclohexyl)methyl)-1H-imidazole-4-carboxamide]: on full-length human RORγt, the IC50 is 1200 nM and the inhibition at 6 µM was 27%. In assay [1], the Kd came out at 260 nM.

With `CCc1nc(C(=O)NC[C@H]2CC[C@H](S(C)(=O)=O)CC2)cn1-c1c(F)cc(CC(C)C)cc1F` [Example 82, 1-(2,6-Difluoro-4-isobutylphenyl)-2-ethyl-N-(((1r,4r)-4-(methylsulfonyl)cyclohexyl)methyl)-1H-imidazole-4-carboxamide], the inhibition at 2 µM on full-length human RORγt (setting [2]) turned out to be 44%. The half-maximal inhibitory concentration (IC50) on full-length human RORγt was determined as 370 nM. In addition, the affinity in assay [1], expressed as Kd, was 150 nM.

For the compound `CCc1nc(C(=O)NC[C@]2(O)CC[C@@H](S(C)(=O)=O)CC2)cn1-c1c(F)cc(CC(C)C(F)(F)F)cc1F` (stereo partly drawn) [Example 84, 1-(2,6-Difluoro-4-(3,3,3-trifluoro-2-methylpropyl)phenyl)-2-ethyl-N-(((1s,4s)-1-hydroxy-4-(methylsulfonyl)cyclohexyl)methyl)-1H-imidazole-4-carboxamide], on full-length human RORγt, the IC50 stood at 2000 nM and the inhibition at 6 µM was determined as 35%. Moreover, the Kd in assay [1] stood at 2200 nM.

Consider `CCc1nc(C(=O)NC[C@H]2CC[C@H](S(C)(=O)=O)CC2)c(Cl)n1-c1c(F)cc(CC(C)C(F)(F)F)cc1F` (stereo partly drawn) [Example 85, 5-Chloro-1-(2,6-difluoro-4-(3,3,3-trifluoro-2-methylpropyl)phenyl)-2-ethyl-N-(((1r,4r)-4-(methylsulfonyl)cyclohexyl)methyl)-1H-imidazole-4-carboxamide], for which the inhibition at 0.22 µM at full-length human RORγt (0.22 μM compound concentration (******), read-out: RORγt (FL) Reporter Assay A or B, % inhibition) was 63%. Moreover, on full-length human RORγt, the IC50 stood at 23 nM. The compound also displayed a dissociation constant Kd in assay [1] of 8.2 nM.

Regarding `CCc1nc(C(=O)NC[C@]2(O)CC[C@@H](S(C)(=O)=O)CC2)c(Cl)n1-c1c(F)cc(CC(C)C(F)(F)F)cc1F` (stereo partly drawn) [Example 88, 5-Chloro-1-(2,6-difluoro-4-(3,3,3-trifluoro-2-methylpropyl)phenyl)-2-ethyl-N-(((1s,4s)-1-hydroxy-4-(methylsulfonyl)cyclohexyl)methyl)-1H-imidazole-4-carboxamide], at full-length human RORγt (setting [2]), the inhibition at 0.67 µM is 67%. Moreover, the IC50 on full-length human RORγt was determined as 46 nM. The affinity in assay [1], expressed as Kd, was 17 nM.

Take `CCc1nc(C(=O)NC[C@H]2CC[C@H](S(C)(=O)=O)CC2)c(Cl)n1-c1ccc(CC(C)C)cc1OC` [Example 89, 5-Chloro-2-ethyl-1-(4-isobutyl-2-methoxyphenyl)-N-(((1r,4r)-4-(methylsulfonyl)cyclohexyl)methyl)-1H-imidazole-4-carboxamide]: the inhibition at 0.67 µM at full-length human RORγt (setting [2]) stood at 66%. Further, the IC50 at full-length human RORγt turned out to be 16 nM. The Kd in assay [1] was 0.2 nM.

Regarding `CCc1nc(C(=O)NC[C@]2(O)CC[C@@H](S(C)(=O)=O)CC2)c(Cl)n1-c1ccc(CC(C)C)cc1OC` [Example 90, 5-Chloro-2-ethyl-N-(((1s,4s)-1-hydroxy-4-(methylsulfonyl)cyclohexyl)methyl)-1-(4-isobutyl-2-methoxyphenyl)-1H-imidazole-4-carboxamide], the inhibition at 2 µM on full-length human RORγt (setting [2]) was found to be 67%. Further, on full-length human RORγt, the IC50 is 21 nM. In assay [1], this compound had a Kd of 0.31 nM.

`CCc1nc(C(=O)NC[C@H]2CC[C@H](S(C)(=O)=O)CC2)c(C#N)n1-c1ccc(CCC(F)(F)F)cc1F` [Example 93, 5-Cyano-2-ethyl-1-(2-fluoro-4-(3,3,3-trifluoropropyl)phenyl)-N-(((1r,4r)-4-(methylsulfonyl)cyclohexyl)methyl)-1H-imidazole-4-carboxamide]: the inhibition at 2 µM on full-length human RORγt (setting [2]) worked out at 65%. Also, the IC50 at full-length human RORγt was found to be 330 nM. Also, the Kd in assay [1] was 93 nM.

As to `CCc1nc(C(=O)NC[C@H]2CC[C@H](S(C)(=O)=O)CC2)c(C(N)=O)n1-c1ccc(CCC(F)(F)F)cc1F` [Example 94, 2-Ethyl-1-(2-fluoro-4-(3,3,3-trifluoropropyl)phenyl)-N^4-(((1r,4r)-4-(methylsulfonyl)cyclohexyl)methyl)-1H-imidazole-4,5-dicarboxamide], on full-length human RORγt (setting [2]), the inhibition at 2 µM stood at 47%. For the same compound, on full-length human RORγt, the concentration for half-maximal inhibition (IC50) is 490 nM. In addition, the Kd in assay [1] is 250 nM.

Consider `CCc1nc(C(=O)NC[C@]2(O)CC[C@@H](S(C)(=O)=O)CC2)c(C#N)n1-c1ccc(CCC(F)(F)F)cc1F` [Example 95, 5-Cyano-2-ethyl-1-(2-fluoro-4-(3,3,3-trifluoropropyl)phenyl)-N-(((1s,4s)-1-hydroxy-4-(methylsulfonyl)cyclohexyl)methyl)-1H-imidazole-4-carboxamide], for which, at full-length human RORγt, the IC50 stood at 1200 nM and the inhibition at 6 µM is 72%. Also, the Kd in assay [1] worked out at 290 nM.

On to `CCc1nc(C(=O)NC[C@]2(O)CC[C@@H](S(C)(=O)=O)CC2)c(C(N)=O)n1-c1ccc(CCC(F)(F)F)cc1F` [Example 96, 2-Ethyl-1-(2-fluoro-4-(3,3,3-trifluoropropyl)phenyl)-N-(((1s,4s)-1-hydroxy-4-(methylsulfonyl)cyclohexyl)methyl)-1H-imidazole-4,5-dicarboxamide], for which, at full-length human RORγt, the IC50 came to 1400 nM and the inhibition at 6 µM was 75%. Moreover, the Kd in assay [1] was 450 nM.
